# Reference: a melting point compilation (Tetko et al.; mined from patent text by program, amines drawn as free bases though some values may be those of a salt)
row,melting point,SMILES
1,78 °C,O=C(CBr)c1ccc(OCCO)cc1
2,98 to 100 °C,COc1ccc(Cl)cc1CN(CCO)c1ncnc2c1ncn2C1OC(CO)C(O)C1O (centres undefined)
3,125 to 128 °C,N#Cc1ccc(OCC(O)CN2C3CCC2CNC3)cc1 (centres undefined)
4,52 to 54 °C,COC(=O)c1sc(C)c(C)c1O
5,209 °C,OC1CSC(Oc2ccc(-c3cnccc3F)nc2-c2cnccc2F)C(O)C1O (centres undefined)
6,314 to 315 °C,Oc1cc(C(F)(F)F)nc2cccc(C(F)(F)F)c12
7,166 to 167 °C,Cc1ccc(S(=O)(=O)Nc2ccc([N+](=O)[O-])cc2C#N)cc1
8,158 to 160 °C,CN1C(=O)C(C(=O)Nc2ccc(F)cc2)Sc2ccccc21 (centres undefined)
9,201 to 202 °C,O=S(=O)(Nc1cccc2cc(-c3nc4ccccc4s3)[nH]c12)c1cccs1
10,154 to 156 °C,COc1ccc(C2(C(=O)O)CCC(=O)CC2)cc1
11,139 to 140 °C,CC(=O)N[C@@H](Cc1ccc(Oc2sc(C(N)=O)c3c2-c2c(cnn2C)CC3)cc1)C(=O)N1CCOCC1
12,174 to 178 °C,NC(=O)CN1C(=O)[C@H](NC(=O)c2cc3ccccc3[nH]2)[C@H](c2ccccc2)Sc2cc(Cl)ccc21 (relative stereo)
13,146 to 147 °C,O=C1c2ccccc2C(=O)N1CCCOc1cccc2c(N3CCCCC3)nccc12
14,230 °C,Cn1cncc1C(O)(c1ccc(C=NO)cc1)c1ccc2[nH]c(=O)cc(-c3cccc(Cl)c3)c2c1 (centres undefined)
15,206 to 210 °C,C[C@H]1[C@H](N)CN1c1c(F)c(N)c2c(=O)c(C(=O)O)cn(C3CC3)c2c1F (relative stereo)
16,148 to 149 °C,O=S(=O)(NCC(O)(c1ccccc1)c1ccc(OCc2ccccc2)cc1)c1ccccc1 (centres undefined)
17,176 to 178 °C,CCCCN(CCCCO)c1ccc(C=Cc2ccc(C=CC3=C(C#N)C(=C(C#N)C#N)OC3(C)C(F)(F)F)s2)c(OCc2ccccc2)c1 (centres undefined)
18,226 to 227 °C,C#CCOc1ccc2c(c1)Sc1cc([N+](=O)[O-])ccc1N2
19,125 °C,Nc1nc(/C(=N/OCC(=O)OC(c2ccccc2)c2ccccc2)C(=O)O)cs1
20,90 to 91 °C,Nc1cnc(-c2ccc(F)cc2)n(CC(=O)N[C@@H](Cc2ccccc2)C(=O)C(F)(F)C(=O)NCc2ccccc2)c1=O
21,133 to 135 °C,Cc1ccc(Cl)c(Nc2ccccc2C(=O)N(O)Cc2ccccc2)c1Cl
22,175 to 178 °C,CC(Oc1nn(-c2ccccc2)cc1-c1ccccc1)C(=O)O (centres undefined)
23,175 to 178 °C,O=C(CC(=O)C(F)(F)F)c1nc2ccc(F)cc2s1
24,65 to 66 °C,CC1(C)OCCc2nc(-c3ccccc3)sc21

row,melting point,SMILES
1,162 °C,Fc1ccc(-c2ncn(CC3CC3)c2-c2ccncc2)cc1
2,82 to 87 °C,CC(C)CCOC(=O)C(O)C(CC(C)C)NC(=O)C(Cc1c[nH]cn1)NC(=O)C(CC(=O)NCCc1ccccc1)Cc1cccc2ccccc12 (mixture of isomers)
3,133 to 134 °C,COCc1ccc(C(=O)O)c2ccccc12
4,136 to 140 °C,O=C1CCC(C(=O)O)(c2ccccc2)CC1
5,219 °C,CC1(C)Oc2ccc(Br)cc2C(n2ccccc2=O)=C1CN(O)C(N)=S
6,114 to 116 °C,COc1ccc(C(=O)CC(C)(C)C(=O)O)cc1OC
7,206 °C,N#Cc1c(N)nc2ccc(N3CCN(Cc4ccccc4)CC3)cc2c1Cl
8,148 to 150 °C,Cc1nc2ccccc2c(=O)n1CCCOS(C)(=O)=O
9,109 to 111 °C,C=C(Sc1ccc(Br)cc1)S(=O)(=O)c1cccc([N+](=O)[O-])c1
10,186 to 188 °C,COc1ccccc1N1CCN(CCn2c(=O)c3cscc3n(CCC(=O)O)c2=O)CC1
11,85 to 86 °C,CCNC(=O)n1nc(Oc2ncc(C(F)(F)F)cc2Cl)cc1CC
12,190 °C,CC(c1cccnc1)n1c(=O)[nH]c2cc(Cl)ccc21 (centres undefined)
13,119 to 129 °C,CC(CS)C(=O)N1CC2CCCCC2C1C(=O)O (centres undefined)
14,186 °C,CC(O)c1cccc(NC(=O)NCC(=O)N(c2ccccc2)C(C)C(=O)N2CCCC(C)(C)C2)c1 (mixture of isomers)
15,111 to 115 °C,CCOC(=O)C(C1c2ccccc2Sc2ccccc21)[N+](=O)[O-] (centres undefined)
16,176 to 178 °C,COc1ccc(C=CC2=NNC(C)Cc3cc4c(cc32)OCO4)c(OC)c1 (centres undefined)
17,165 to 167 °C,CCCc1c(OCCCCCc2ccc3cc(O)c(O)cc3c2)ccc(C(=O)O)c1O
18,161 to 163 °C,O=C1c2ccsc2S(=O)(=O)CCN1CCCCN1CCN(c2ncccn2)CC1
19,53 to 54 °C,CCN1CC(O)CC1=O (centres undefined)
20,152 to 154 °C,CC(C)N1C(=O)c2cnc(-c3ccccc3)nc2N(C(=O)CN2CCCCC2)c2ccccc21
21,168 to 170 °C,CCc1cccc(NC(=O)c2cnn(C)c2N)c1
22,322 to 328 °C,C[C@H](NC(=O)c1c[nH]c2ncc(-c3nn(C)c4cc(Cl)ccc34)nc12)C(C)(C)C#N
23,205 to 207 °C,Cc1cn(C)c2c1N(C(=O)CN1CCN(C)CC1)c1ccccc1NC2=O
24,97 to 102 °C,Cn1c(COc2ccc(CC3SC(=O)N(C(c4ccccc4)(c4ccccc4)c4ccccc4)C3=O)cc2)nc2cccnc21 (centres undefined)

row,melting point,SMILES
1,112 to 113 °C,O=C1N(CCCOCc2ccccc2)c2ccccc2C12COc1cc3c(cc12)CCO3 (centres undefined)
2,233 °C,CN1C(=O)CCC(C)(C)c2cc(Nc3ncc(Cl)c(N[C@H]4[C@@H](C(N)=O)[C@@H]5C=C[C@H]4C5)n3)ccc21
3,104 °C,OCc1ccc(-c2nn(Cc3ccccc3)c3ncccc23)o1
4,161 to 163 °C,Oc1ccc(N2CCN(c3nc4ccccc4o3)CC2)cc1
5,94 °C,O=[N+]([O-])c1cccc(OCc2ccccc2)c1Cl
6,61 to 67 °C,c1ccc(Cc2ccccc2Cc2ccccc2)cc1
7,214 to 217 °C,N#Cc1ccc(N=CNc2ccc(C#N)cc2)cc1
8,131 to 134 °C,COc1ccc(C=Cc2ccc(OC)c(OC)c2)cc1
9,73 to 74 °C,COC1(c2cc(F)cc(Sc3ccc(C(C)=O)cn3)c2)CCOCC1
10,208 to 209 °C,CCc1[nH]n(C2CCCC2)c2nc(-c3ccccc3OCC(=O)O)nc(=O)c1-2
11,96 °C,CC(C)COC(=O)c1ccc(OCC(=NO)c2ccc3c(c2)C(C)(C)CCC3(C)C)cc1O
12,195 to 198 °C,COC(=O)c1c(S(=O)(=O)NC(=O)Nc2nc(C)nc(OC)n2)c(C)nn1C
13,48 to 50 °C,CCOC(=O)c1ncc(Cl)cc1F
14,177 to 178 °C,CC1(C)CCC(C)(C)c2cc(CCCSN3C=CC=NC3)c(/C=C/c3ccc(C(=O)O)cc3)cc21
15,120 °C,CC(CN1CCCC1)N1c2ccc(Cl)cc2Sc2ccc(C3=NC4CCCCC4N3)cc21 (racemic)
16,131 to 141 °C,O=C(O)CCCCCCC1C(=O)CCC1=O
17,43 to 45 °C,CCCCCCCCCCCCCCCCNc1ccc(COC(C)=O)cc1
18,150 to 153 °C,COc1ccc(-c2cnc(N)c(Cc3ccccc3)n2)cc1
19,31 to 33 °C,CC(O)(CCBr)C1CCCCC1 (centres undefined)
20,225 °C,NC(=O)c1cc(C(=O)c2ccccc2)ccc1N
21,125 to 126 °C,CC(C)Cc1nn(-c2ccccc2)c(CC(C)C)c1CC(=O)O
22,135 to 136 °C,ClCCCOc1cccc(OCCCCl)c1
23,122 °C,COc1ccc(S(=O)(=O)C(C)(Cc2ccc(OCCCN3CCN(c4cccc(Cl)c4)CC3)cc2)C(=O)NO)cc1 (centres undefined)
24,222 to 223 °C,O=C1c2c(O)cccc2C(O)(c2cccc(C(F)(F)F)c2)c2cccc(O)c21

row,melting point,SMILES
1,179 to 180 °C,O=C(O)C(=O)c1ccc(OCCOc2cc3ccccc3c3ccccc23)cc1
2,157 to 158 °C,Oc1cc(O)cc(/C=C/c2ccccc2)c1
3,235 °C,CCOP(=O)(O)C(=Nc1ccc(-c2c[nH]cn2)cc1)NC(C)C
4,235 °C,CCOc1cc(-c2cc(C(F)(F)F)n3ncc(C(=O)Nc4cccc(S(=O)(=O)N5CCOCC5)c4)c3n2)ccc1C(F)(F)F
5,66 to 68 °C,COC(=O)C=Cc1ccc2c(c1)OCCO2
6,> 247 °C,Cc1cccc2c3c([nH]c12)CCCC3=O
7,145 to 147 °C,COCn1c(C(N)=O)c(OC(C)C)c2cc(OC)ccc21
8,117 to 119 °C,C/C=C/c1cc(OC)c2c(c1)[C@@H](C)[C@H](c1cc(CO)c(O)c(OC)c1)O2 (relative stereo)
9,234 to 235 °C,CC(C)(C)OC(=O)NCc1[nH]c(=O)c2ccc(C#N)cc2c1-c1ccc(Cl)cc1
10,129 to 131 °C,CCCCCCCCCCCCCCCCSc1cc(O)c(Sc2nnnn2-c2ccccc2)cc1O
11,95 to 99 °C,Cc1cc(OC2SCC(O)C(O)C2O)c(-c2ccnn2-c2ccccc2)cc1Cl (centres undefined)
12,149 °C,O=C(CN1CCCC1=O)NCc1cccc(CNC(=O)CN2CCCC2=O)n1
13,159 °C,CO[C@H](C)C(=O)N[C@H]1CC[C@H](CCN2CCN(c3nccc4c3CCO4)CC2)CC1
14,285 to 286 °C,Clc1cccc(Nc2ncnc3[nH]c(-c4ccccc4)cc23)c1
15,144 to 145 °C,NCC(c1ccccc1)C(CN)c1ccccc1 (centres undefined)
16,167 to 169 °C,Nc1ccn(C2C=CC(CO)O2)c(=O)n1 (centres undefined)
17,244 °C,COc1ccc(-c2cc(C(F)(F)F)n3ncc(-c4ccncc4)c3n2)cc1
18,143 °C,COc1ccc(Cn2nc(-c3ccc(OC)cc3)c(-c3ccncc3)cc2=O)cc1
19,59 to 60 °C,COc1ccc(Cl)cc1C(=O)Cl
20,> 290 °C,CCNC(=O)Nc1ccc(-c2cc3c(Nc4cccc(Cl)c4)ncnc3[nH]2)cc1
21,156 to 158 °C,Cc1onc(NS(=O)(=O)c2cccs2)c1Br
22,135 to 138 °C,O=C1OC(c2ccccc2)N=C1CCCNC(=O)c1ccccc1 (centres undefined)

row,SMILES,melting point
1,CNC(=O)Oc1c(C)ccc2c1CC(C)C2(C)C (centres undefined),110 °C
2,CN1CCC(c2n[nH]c3ccc(F)cc23)CC1,202 to 204 °C
3,CC1(C)NC(=O)N(c2ccc(C#N)c(C(F)(F)F)c2)C1=O,210 °C
4,Cc1nnc(CO)n1-c1ccc(Cl)cc1C(=O)c1ccccc1,138 to 142 °C
5,Cc1ccccc1-n1c(C=Cc2ccccc2F)nc2nccnc2c1=O,> 250 °C
